In publication PMC5883364 (Malaria Journal, 2018):
“Also recorded” adds a separate entry of the source. Like-named read-outs stand apart in the source and are kept apart here.

Tests used:
[1] = test system: V79 (Chinese hamster lung) cells; details: for LD50 V79: Chinese hamster, 24 h; for Selectivity index LD50 (V79)/IC50 (3D7): V79 vs 3D7; for Selectivity index LD50 (V79)/IC50 (Dd2): V79 vs Dd2; for Selectivity index LD50 (V79)/IC50 (IPC4912): V79 vs IPC4912; for Selectivity index LD50 (V79)/IC50 (IPC5202): V79 vs IPC5202
Protocol: (§1) Cytotoxicity was assessed on the mammalian cell lines HepG2-A16 (human hepatoma) and V79 (Chinese hamster lung), using a MTT based assay, as previously described. […] V79 and HepG2 cell lines were incubated for 24 and 48 h, respectively (media changed at 24 h intervals). Absorbance was read at 570 nm on a multi-mode microplate reader (Triad, Dynex Technologies), to produce a log dose-dependence curve. The LD50 value for each compound was estimated by non-linear interpolation of the dose-dependence curve (GraphPad Software).

[2] = test system: HepG2-A16 (human hepatoma) cells; details: for Selectivity index LD50 (HepG2)/IC50 (3D7): HepG2 vs 3D7; for Selectivity index LD50 (HepG2)/IC50 (Dd2): HepG2 vs Dd2; for Selectivity index LD50 (HepG2)/IC50 (IPC4912): HepG2 vs IPC4912; for Selectivity index LD50 (HepG2)/IC50 (IPC5202): HepG2 vs IPC5202; for LD50 HepG2: human, 48 h
Protocol: as §1

[3] = test system: Plasmodium berghei NK65; assay: Peters' 4-day suppressive test in Swiss albino mice; assay type: in vivo; details: for in vivo outcome against P. berghei in words / inhibition in vivo at 50 mg/kg/day / Mean parasitaemia ± SD, Day 5 / Mean parasitaemia ± SD, Day 7 / Mean parasitaemia ± SD, Day 10: 50 mg/kg/day oral for 4 days; for in vivo outcome against P. berghei in words: followed to day 10; for inhibition in vivo at 50 mg/kg/day: Plasmodium berghei; for inhibition in vivo at 50 mg/kg/day / Mean parasitaemia ± SD, Day 5 / Mean parasitaemia ± SD, Day 7 / Mean parasitaemia ± SD, Day 10: mice
Protocol: In vivo tests were performed following the Guidelines for Ethical Conduct in The Care and Use of Animals of the Federal University of Rio Grande do Norte—Brazil (CEUA/UFRN/46/2013). Evaluation of anti-malarial activity in vivo was carried out using the Peters’ 4-day suppressive test, with modifications, as previously described. Swiss albino mice were infected with Plasmodium berghei NK65 and randomly allocated to groups of five animals. Animals were treated with 50 mg/kg/day of each of the tested compounds (dissolved in PBS containing 1% DMSO), administrated orally, for four consecutive days. The control group was treated with a solution of PBS/1% DMSO. On days 5 (D5), 7 (D7) and 10 (D10) after parasite inoculation, tail blood smears were Giemsa-stained and examined microscopically to estimate parasitaemia. Acute toxicity testing was carried out to determine adverse effects due to compounds (including weight loss, hair appearance, skin wounds and behavioural changes), and recorded daily.

[4] = test system: P. falciparum IPC4912 (artemisinin-resistant, K13 I543T); assay: SYBR Green I assay, IC50, strain IPC4912; assay type: cell-based, Plasmodium falciparum; details: for Resistance Index RIc = IC50 (IPC4912)/IC50 (3D7): IPC4912 vs 3D7; for IC50: Plasmodium falciparum, read-out: P. falciparum IC50 ± SD, IPC4912
Protocol: Staging and parasitaemia were determined by light microscopy of Giemsa-stained thin blood smears. Anti-malarial activity was determined using the SYBR Green I assay, as previously described. Briefly, early ring stage parasites (> 80% of rings) were challenged with a 1:3 serial dilution of each compound, in concentrations ranging from 10,000–0.169 nM. Fluorescence intensity was measured with a multi-mode microplate reader (Triad, Dynex Technologies), with excitation and emission wavelengths of 485 and 535 nm, respectively, and analysed by nonlinear regression using GraphPad Prism to determine IC50 values.

[5] = test system: P. falciparum IPC5202 (artemisinin-resistant, K13 R539T); assay: SYBR Green I assay, IC50, strain IPC5202; assay type: cell-based, Plasmodium falciparum; details: for Resistance Index RIb = IC50 (IPC5202)/IC50 (3D7): IPC5202 vs 3D7; for IC50: Plasmodium falciparum, read-out: P. falciparum IC50 ± SD, IPC5202, strain IPC5202
Protocol: (§2) Staging and parasitaemia were determined by light microscopy of Giemsa-stained thin blood smears. Anti-malarial activity was determined using the SYBR Green I assay, as previously described.

[6] = test system: P. falciparum 3D7 (chloroquine and mefloquine sensitive); assay: SYBR Green I assay, IC50, strain 3D7; assay type: cell-based, Plasmodium falciparum; details: Plasmodium falciparum, 3D7, read-out: P. falciparum IC50 ± SD, 3D7
Protocol: as §2

[7] = test system: P. falciparum Dd2 (chloroquine-resistant, mefloquine-resistant); assay: SYBR Green I assay, IC50, strain Dd2; assay type: cell-based, Plasmodium falciparum; details: for Resistance Index RIa = IC50 (Dd2)/IC50 (3D7): Dd2 vs 3D7
Protocol: as §2

[8] = 120 h, day 5, vs control group, read-out: % inhibition of parasite growth, Day 5 (converted)
[9] = 168 h, day 7, vs control group, read-out: % inhibition of parasite growth, Day 7 (converted)
[10] = 240 h, day 10, vs control group, read-out: % inhibition of parasite growth, Day 10 (converted)

Row | Compound | LD50 V79 [1] | Selectivity index LD50 (V79)/IC50 (3D7) [1] | Selectivity index LD50 (V79)/IC50 (Dd2) [1] | Selectivity index LD50 (V79)/IC50 (IPC4912) [1] | Selectivity index LD50 (V79)/IC50 (IPC5202) [1] | Selectivity index LD50 (HepG2)/IC50 (3D7) [2] | Selectivity index LD50 (HepG2)/IC50 (Dd2) [2] | Selectivity index LD50 (HepG2)/IC50 (IPC4912) [2] | Selectivity index LD50 (HepG2)/IC50 (IPC5202) [2] | LD50 HepG2 [2] | inhibition in vivo at 50 mg/kg/day [3, 8] | inhibition in vivo at 50 mg/kg/day [3, 9] | inhibition in vivo at 50 mg/kg/day [3, 10] | Mean parasitaemia ± SD, Day 5 ([3]; day 5) | Mean parasitaemia ± SD, Day 7 ([3]; day 7) | Mean parasitaemia ± SD, Day 10 [3] | Resistance Index RIc = IC50 (IPC4912)/IC50 (3D7) [4] | IC50 [4] | Resistance Index RIb = IC50 (IPC5202)/IC50 (3D7) [5] | IC50 [5] | also measured
1 | C1C2CC3CC1CC(C2)C31OOC2(CCC(Nc3nnn[nH]3)CC2)O1 (stereo not shown) [LC136] | > 1 mM | 357142.8 | 400000.0 | 147058.8 | 163934.4 | 357142.8 | 400000.0 | 147058.8 | 163934.4 | 1.0 mM | 100% | 100% | 100% | 0% | 0% | 0% | 2.43 | 6.8 ± 2.3 nM | 2.18 | 6.1 ± 1.9 nM | in vivo outcome against P. berghei in words [3]: complete suppression of parasitaemia; also recorded: total suppression of parasitaemia from day 5 to day 10; also recorded: totally suppressed P. berghei parasitaemia
2 | O=S1(=O)N=C(NCC2CCC3(CC2)OOC2(O3)C3CC4CC(C3)CC2C4)c2ccccc21 (stereo not shown) [LC130] | > 1 mM | 42918.4 | 40322.6 | 416666.6 | 121951.2 | 42918.4 | 40322.6 | 416666.6 | 121951.2 | 1.0 mM | 100% | 60.8% | 76.7% | 0% | 1.4 ± 0.94% | 1.32 ± 0.24% | 0.10 | 2.4 ± 1.6 nM | 0.35 | 8.2 ± 1.9 nM | in vivo outcome against P. berghei in words [3]: recrudescence occurred on day 7; mice parasitemic, day 7 ([3]; groups of five mice, 50 mg/kg/day oral, day 7): 2/5
3 | CCN(CC)CCCC(C)Nc1ccnc2cc(Cl)ccc12 (stereo not shown) [CQ, chloroquine, reference compound] | – | – | – | – | – | – | – | – | – | – | – | – | – | – | – | – | – | – | – | – | IC50 [6]: 15.8 ± 0.8 nM; IC50 ([7]; Plasmodium falciparum, DD2, read-out: P. falciparum IC50 ± SD, Dd2, strain Dd2): 340 ± 20.7 nM; IC50 ([7]; read-out: P. falciparum IC50 ± SD, Dd2, strain Dd2): 340 ± 20.7 nM
4 | Cn1nnc(N)n1 [LC126II, 2-methyl-2H-tetrazole-5-amine] | – | – | – | – | – | – | – | – | – | – | – | – | – | – | – | – | – | – | – | – | IC50 [6]: > 10000 nM; IC50 ([7]; Plasmodium falciparum, DD2, read-out: P. falciparum IC50 ± SD, Dd2): > 10000 nM; antiplasmodial activity of building blocks in words ([7]; tested separately, Dd2 and 3D7 (Additional file 1)): devoid of antiplasmodial activity
5 | O=S1(=O)N=C(OCC2CCC3(CC2)OOC2(O3)C3CC4CC(C3)CC2C4)c2ccccc21 (stereo not shown) [LC129] | > 1 mM | 23310.0 | 23148.1 | 29673.5 | 27502.7 | 23310.0 | 23148.1 | 29673.5 | 27502.7 | 1.0 mM | 87.6% | 50.7% | 76.7% | 0.19 ± 0.12% | 1.76 ± 1.36% | 1.32 ± 1.24% | 0.79 | 29.3 ± 0.7 nM | 0.85 | 36.4 ± 0.6 nM | in vivo outcome against P. berghei in words [3]: failed to completely suppress it
6 | CCCCNC(=O)C1CCC2(CC1)OOC1(O2)C2CC3CC(C2)CC1C3 (stereo not shown) [LC92] | > 1 mM | 37453.1 | 44247.8 | 28653.3 | 26525.2 | 37453.1 | 44247.8 | 28653.3 | 26525.2 | 1.0 mM | 98.3% | 87% | 86.3% | 0.02 ± 0.05% | 0.46 ± 0.60% | 0.77 ± 0.26% | 1.31 | 34.9 ± 7.9 nM | 1.41 | 37.7 ± 9.9 nM | mice presenting parasitaemia, day 5 ([3]; groups of five mice, 50 mg/kg/day oral, day 5): 5
7 | Cn1nnc(NCC2CCC3(CC2)OOC2(O3)C3CC4CC(C3)CC2C4)n1 (stereo not shown) [LC131] | > 1 mM | 344827.5 | 476190.5 | 208333.3 | 294117.6 | 344827.5 | 476190.5 | 208333.3 | 294117.6 | 1.0 mM | 100% | 100% | 100% | 0% | 0% | 0% | 1.66 | 4.8 ± 1.2 nM | 1.17 | 3.4 ± 2.1 nM | in vivo outcome against P. berghei in words [3]: complete suppression of parasitaemia; also recorded: total suppression of parasitaemia from day 5 to day 10; also recorded: totally suppressed P. berghei parasitaemia
8 | c1ccc(-n2nnnc2OCC2CCC3(CC2)OOC2(O3)C3CC4CC(C3)CC2C4)cc1 (stereo not shown) [LC132] | > 1 mM | 41322.3 | 37596.9 | 50761.4 | 40000.0 | 41322.3 | 37596.9 | – | 40000.0 | 1.0 mM | 100% | 100% | 94.5% | 0% | 0% | 0.31 ± 0.10% | 0.81 | 19.7 ± 3.4 nM | 1.03 | 25 ± 7.4 nM | in vivo outcome against P. berghei in words [3]: recrudescence also occurred on day 10; also recorded: allowed recrudescence on day 10; Resistance Index RIa = IC50 (Dd2)/IC50 (3D7) [7]: 1.1; times less active than LC131 or LC136 ([7]; in vitro, strain not stated): up to 12
9 | CC(C)(C)OC(=O)NCCCCNC1CCC2(CC1)OOC1(O2)C2CC3CC(C2)CC1C3 (stereo not shown) [MIS14] | > 1 mM | 25575.4 | 22421.5 | 2567.4 | 2420.7 | 8439.9 | 7399.1 | 847.2 | 798.8 | 0.3 mM | – | – | – | – | – | – | – | 390 ± 17.8 nM | – | 413 ± 20.2 nM | decrease in HepG2 survival ([2]; maximum dose of 1 mM): ~30%; Resistance Index RIa = IC50 (Dd2)/IC50 (3D7) [7]: 1.1
